# Literature values, collected in US20210236583A1, “Targeting the renin-angiotensin system for treatment of environment-and pathogen-induced lung injury” (priority 2020, published 2021).
# Test system: mice
# Conditions: direct injection of recombinant ACE2 protein
substance,measurement,value
"recombinant ACE2 protein: recombinant ACE2 protein injected directly, from the literature (Imai et al., 2005)",protection from severe acute lung injury,protect mice from severe acute lung injury
